Source: US11802127B2, “3,4-dihydro-2,7-naphthyridine-1,6(2H,7H)-diones as MEK inhibitors” (Pfizer Inc., priority 2021, dated 2023)
Blank lines part the entries; values can stand above or below the compound they belong to.

What was measured:
[1] = target: T1, P-gp (MDR1) (Homo sapiens, UniProt P08183); assay: Efflux ratio in MDR1 transfected LLC-PK1 cells; type: in vitro ADME; conditions: pig, Papp(B−A)/Papp(A−B)
T1 construct: expressed in transfected cells; host or cells: LLC-PK1 (porcine kidney) cells transfected with MDR1
T1 sequence (P08183 whole entry): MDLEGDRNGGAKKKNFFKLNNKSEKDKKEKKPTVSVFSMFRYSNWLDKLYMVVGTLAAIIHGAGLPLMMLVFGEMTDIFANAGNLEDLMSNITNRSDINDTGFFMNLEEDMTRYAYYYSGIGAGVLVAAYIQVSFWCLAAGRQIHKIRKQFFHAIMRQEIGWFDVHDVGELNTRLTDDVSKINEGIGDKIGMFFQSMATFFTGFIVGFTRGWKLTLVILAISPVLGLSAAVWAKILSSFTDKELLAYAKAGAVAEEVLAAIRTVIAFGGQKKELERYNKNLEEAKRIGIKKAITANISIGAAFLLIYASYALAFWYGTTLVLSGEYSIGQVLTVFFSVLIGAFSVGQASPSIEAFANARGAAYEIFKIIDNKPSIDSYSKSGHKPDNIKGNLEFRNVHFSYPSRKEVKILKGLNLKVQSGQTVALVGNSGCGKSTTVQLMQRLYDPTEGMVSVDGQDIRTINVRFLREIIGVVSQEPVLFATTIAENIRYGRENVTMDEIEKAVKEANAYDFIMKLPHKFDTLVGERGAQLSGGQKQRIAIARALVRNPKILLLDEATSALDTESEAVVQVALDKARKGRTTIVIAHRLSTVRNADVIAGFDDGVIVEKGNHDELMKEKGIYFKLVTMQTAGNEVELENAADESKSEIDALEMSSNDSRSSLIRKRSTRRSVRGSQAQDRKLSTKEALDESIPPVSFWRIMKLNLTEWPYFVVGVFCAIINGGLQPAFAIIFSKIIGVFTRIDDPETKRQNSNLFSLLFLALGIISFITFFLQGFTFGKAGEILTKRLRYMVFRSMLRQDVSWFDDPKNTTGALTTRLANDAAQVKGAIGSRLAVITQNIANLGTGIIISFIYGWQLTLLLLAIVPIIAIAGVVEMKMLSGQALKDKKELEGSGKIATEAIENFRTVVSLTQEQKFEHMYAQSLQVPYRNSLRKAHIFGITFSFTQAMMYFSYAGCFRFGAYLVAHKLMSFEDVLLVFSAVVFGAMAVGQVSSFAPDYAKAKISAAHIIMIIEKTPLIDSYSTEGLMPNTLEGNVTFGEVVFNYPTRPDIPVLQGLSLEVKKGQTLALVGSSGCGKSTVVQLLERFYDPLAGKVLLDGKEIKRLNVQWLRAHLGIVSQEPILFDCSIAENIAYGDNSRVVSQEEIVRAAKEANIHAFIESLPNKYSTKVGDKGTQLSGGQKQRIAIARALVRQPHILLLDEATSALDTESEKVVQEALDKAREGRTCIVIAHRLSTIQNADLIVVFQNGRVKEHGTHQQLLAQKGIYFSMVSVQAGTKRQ
Summary of the method: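 LLC-PK1 cells transfected with MDR1, test article at 1 μM (1% organic), transport measured A→B and B→A over 2 h at 37° C. Monolayer integrity checked with lucifer yellow, compound quantified by LC-MS/MS. Efflux ratio = Papp(B−A)/Papp(A−B).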

[2] = target: T2, BCRP (hBCRP) (Homo sapiens, UniProt Q9UNQ0); assay: Efflux ratio in BCRP transfected MDCKII canine P-gp knockout cells; type: in vitro ADME; conditions: Papp(B−A)/Papp(A−B), read-out: Efflux ratio MDCKII-hBCRP knock-in,canine pg-P KO
T2 construct: expressed in transfected cells; host or cells: MDCKII (canine kidney) cells, canine P-gp knockout, transfected with BCRP
T2 sequence (Q9UNQ0 1-655): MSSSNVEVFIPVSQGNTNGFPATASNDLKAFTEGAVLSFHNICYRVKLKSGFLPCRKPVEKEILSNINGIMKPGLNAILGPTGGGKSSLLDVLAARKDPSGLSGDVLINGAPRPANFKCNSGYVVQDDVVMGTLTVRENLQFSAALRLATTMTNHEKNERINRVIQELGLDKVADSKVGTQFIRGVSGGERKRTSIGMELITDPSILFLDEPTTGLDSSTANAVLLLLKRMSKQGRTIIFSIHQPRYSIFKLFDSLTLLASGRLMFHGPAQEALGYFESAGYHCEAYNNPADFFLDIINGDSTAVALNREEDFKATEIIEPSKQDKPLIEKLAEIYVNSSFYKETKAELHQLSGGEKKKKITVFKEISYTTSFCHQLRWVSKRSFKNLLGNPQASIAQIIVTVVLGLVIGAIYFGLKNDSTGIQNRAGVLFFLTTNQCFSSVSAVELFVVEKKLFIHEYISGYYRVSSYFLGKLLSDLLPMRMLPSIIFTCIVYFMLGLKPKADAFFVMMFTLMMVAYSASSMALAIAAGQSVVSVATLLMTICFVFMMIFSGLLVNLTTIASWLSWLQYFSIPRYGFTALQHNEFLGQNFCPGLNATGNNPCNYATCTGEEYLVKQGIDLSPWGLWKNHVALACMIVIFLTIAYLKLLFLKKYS
Summary of the method: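 Test article at 1 μM final (1% organic) in A→B and B→A directions across MDCKII P-gp knockout monolayers expressing BCRP, 2 h at 37° C., triplicate; lucifer yellow checked monolayer integrity. Concentrations by LC-MS/MS against labetalol internal standard; efflux ratio = Papp(B−A)/Papp(A−B).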

efflux ratio at 2 h, 1 μM [1]: 2.7 | efflux ratio at 2 h, 1 μM [2]: 3.4
SMILES: CCc1ccc(Nc2c3c(cc(=O)n2C)CCN(OCCO)C3=O)c(F)c1 [Example 14, 8-((4-ethyl-2-fluorophenyl)amino)-2-(2-hydroxyethoxy)-7-methyl-3,4-dihydro-2,7-naphthyridine-1,6(2H,7H)-dione]

efflux ratio at 2 h, 1 μM [1]: 3.4 | efflux ratio at 2 h, 1 μM [2]: 5.5
SMILES: CSc1ccc(Nc2c3c(cc(=O)n2C)CCN(OCCO)C3=O)c(F)c1 [Example 6, 8-((2-fluoro-4-(methylthio)phenyl)amino)-2-(2-hydroxyethoxy)-7-methyl-3,4-dihydro-2,7-naphthyridine-1,6(2H,7H)-dione]

efflux ratio at 2 h, 1 μM [1]: 5.4 | efflux ratio at 2 h, 1 μM [2]: 9.6
SMILES: Cn1c(Nc2ccc(Br)cc2F)c2c(cc1=O)CCN(OCCO)C2=O [Example 7, 8-((4-bromo-2-fluorophenyl)amino)-2-(2-hydroxyethoxy)-7-methyl-3,4-dihydro-2,7-naphthyridine-1,6(2H,7H)-dione]

More lines, now with the values behind:

SMILES: Cc1c2c(c(Nc3ccc(Br)cc3F)n(C)c1=O)C(=O)N(OCCO)CC2 [Example 36, 8-((4-bromo-2-fluorophenyl)amino)-2-(2-hydroxyethoxy)-5,7-dimethyl-3,4-dihydro-2,7-naphthyridine-1,6(2H,7H)-dione]
efflux ratio at 2 h, 1 μM [1]: 2.9 | efflux ratio at 2 h, 1 μM [2]: 3.5

SMILES: Cn1c(Nc2ccc(I)cc2F)c2c(cc1=O)CCN(OCCO)C2=O [Example 8, 8-((2-fluoro-4-iodophenol)amino)-2-(2-hydroxyethoxy)-7-methyl-3,4-dihydro-2,7-naphthyridine-1,6(2H,7H)-dione]
efflux ratio at 2 h, 1 μM [1]: 7.1 | efflux ratio at 2 h, 1 μM [2]: 3.4

SMILES: Cn1c(Nc2ccc(OC(F)F)cc2F)c2c(cc1=O)CCN(OCCO)C2=O [Example 22, 8-((4-(difluoromethoxy)-2-fluorophenyl)amino)-2-(2-hydroxyethoxy)-7-methyl-3,4-dihydro-2,7-naphthyridine-1,6(2H,7H)-dione]
efflux ratio at 2 h, 1 μM [1]: 6.2 | efflux ratio at 2 h, 1 μM [2]: 9
